Assay [1] has as its system Human immunodeficiency virus 1. Description: Antiviral activity against Human immunodeficiency virus 1 IIIB infected CEM cells assessed as inhibition of virus-induced giant cell formation after 4 days by microscopic analysis. It counts as functional, organism-based. Conditions: CCRF-CEM, 96 h.
The subject of the next assay is WI-38. Nature of the assay: Antiproliferative activity against Homo sapiens (human) WI38 cells by MTT assay. It counts as cell-based.
The next assay concerns SW-620. Description: Antiproliferative activity against Homo sapiens (human) SW620 cells by MTT assay. The format is functional, cell-based.
For the next assay, the system named is MIA PaCa-2. Description: Antiproliferative activity against Homo sapiens (human) MIAPaCa2 cells by MTT assay. It counts as functional, cell-based.
A further assay deals with MCF7. Description: Antiproliferative activity against Homo sapiens (human) MCF7 cells by MTT assay. The format is functional, cell-based.
The next assay concerns HepG2. Description: Antiproliferative activity against Homo sapiens (human) HepG2 cells by MTT assay. It counts as functional, cell-based.
Another assay relates to HeLa. Description: Antiproliferative activity against Homo sapiens (human) HeLa cells by MTT assay. It counts as functional, cell-based.
The next assay deals with CCRF-CEM. Nature of the assay: Cytostatic activity against Homo sapiens (human) CEM cells after 72 hr by Coulter counting analysis. The format is functional, cell-based.
In another assay the test system is MOLT-4. Description: Cytostatic activity against Homo sapiens (human) Molt4/C8 cells after 72 hr by Coulter counting analysis. The format is functional, cell-based. The settings on record: MOLT-4, 72 h.
The subject of the next assay is L1210. Nature of the assay: Cytostatic activity against Mus musculus (mouse) L1210 cells after 48 hr by Coulter counting analysis. The format is functional, cell-based.
For another assay, the system named is Influenza A virus H3N2. Description: Antiviral activity against Influenza A virus H3N2 infected MDCK cells assessed as inhibition of virus-induced cytopathic effect. It counts as functional, organism-based.
Another assay deals with Influenza B virus. Nature of the assay: Antiviral activity against Influenza B virus infected MDCK cells assessed as inhibition of virus-induced cytopathic effect. It counts as functional, organism-based.
For the next assay, the system named is Influenza A virus. Nature of the assay: Antiviral activity against Unidentified Influenza A virus ([…]) infected MDCK cells assessed as inhibition of virus-induced cytopathic effect. Conditions: Influenza A virus (H1N1). The format is functional, organism-based.
The test system of assay [2] is Respiratory syncytial virus. Nature of the assay: Antiviral activity against Respiratory syncytial virus infected HeLa cells assessed as inhibition of virus-induced cytopathic effect. It counts as functional, organism-based.
Assay [3] concerns Coxsackievirus B4. Nature of the assay: Antiviral activity against Human coxsackievirus B4 infected HeLa cells assessed as inhibition of virus-induced cytopathic effect. The format is functional, organism-based.
Assay [4] concerns Vesicular stomatitis virus. Description: Antiviral activity against Vesicular stomatitis virus infected HeLa cells assessed as inhibition of virus-induced cytopathic effect. It counts as functional, organism-based.
The next assay relates to Punta Toro virus. Nature of the assay: Antiviral activity against Punta Toro virus infected Vero cells assessed as inhibition of virus-induced cytopathic effect. It counts as functional, organism-based.
Assay [5] concerns Coxsackievirus B4. Description: Antiviral activity against Human coxsackievirus B4 infected Vero cells assessed as inhibition of virus-induced cytopathic effect. The format is functional, organism-based.
The subject of a further assay is Sindbis virus. Description: Antiviral activity against Sindbis virus infected Vero cells assessed as inhibition of virus-induced cytopathic effect. It counts as functional, organism-based.
A further assay has as its system Reovirus sp. Nature of the assay: Antiviral activity against Mammalian orthoreovirus 1 infected Vero cells assessed as inhibition of virus-induced cytopathic effect. The format is functional, organism-based.
A further assay concerns Human respirovirus 3. Nature of the assay: Antiviral activity against Human parainfluenza virus 3 infected Vero cells assessed as inhibition of virus-induced cytopathic effect. The format is functional, organism-based.
The next assay has as its system Human alphaherpesvirus 2. Nature of the assay: Antiviral activity against Human herpesvirus 2 strain G infected HEL cells assessed as inhibition of virus-induced cytopathic effect. It counts as functional, organism-based.
For another assay, the system named is Human alphaherpesvirus 1. Nature of the assay: Antiviral activity against Human herpesvirus 1 strain KOS infected in HEL cells assessed as inhibition of virus-induced cytopathic effect. It counts as functional, organism-based.
For assay [6], the system named is Human immunodeficiency virus 2. Description: Antiviral activity against Human immunodeficiency virus type 2 (ISOLATE ROD) infected CEM cells assessed as inhibition of virus-induced giant cell formation after 4 days by microscopic analysis. Conditions: Human immunodeficiency virus 2, ISOLATE ROD, CCRF-CEM, 96 h. The format is functional, organism-based.

Activity calls are given as the source filed them. The calls are words filed in the database; no cut-off is given here.

For `NC/C=C\Cn1cnc2c(Cl)nc(N)nc21`, the EC50 in assay [1] and in assay [6] was at least 100 µM in each case. Further, the IC50 in the assay on WI-38 is above 100 µM; in the assay with SW-620 (Homo sapiens, SW-620) it was above 100 µM; with MIA PaCa-2, above 100 µM; with MCF7, above 100 µM; with HepG2, above 100 µM; in the assay with HeLa it was 54 µM. Moreover, the IC50 was above 500 µM in the assay on CCRF-CEM; above 500 µM in the assay with MOLT-4; above 500 µM in the assay on L1210 (Mus musculus, L1210, 48 h). Moreover, the Activity result in the assay on HeLa was “Dose-dependent effect”. In addition, the outcome (with Influenza A virus H3N2; with Influenza B virus; in the assay on Influenza A virus; in [2]; in the assay on Coxsackievirus B4 [3]; in assay [4]) was inactive. Also, the result in the assay on Punta Toro virus, with Coxsackievirus B4 [5], in the assay with Sindbis virus, in the assay on Reovirus sp., in the assay with Human respirovirus 3 and in the assay with Human alphaherpesvirus 2 was inactive. The outcome in the assay on Human alphaherpesvirus 1 was inactive.
Regarding `NCCCCn1cnc2c(-n3cccc3)ncnc21`, the IC50 in the assay with WI-38 is above 100 µM; in the assay with SW-620 (Homo sapiens, SW-620) it was 40.5 µM; in the assay on MIA PaCa-2 it was above 100 µM; in the assay on MCF7, above 100 µM; with HepG2, 74.2 µM; with HeLa, 10.9 µM. Moreover, the IC50 in the assay with CCRF-CEM was 115 µM; with MOLT-4, 140 µM; with L1210 (Mus musculus, L1210, 48 h), 91 µM. Besides, the Activity result in the assay on HeLa was “Dose-dependent effect”. Also, the outcome (with Influenza A virus H3N2; in the assay with Influenza B virus; in the assay with Influenza A virus; in assay [2]; in the assay with Coxsackievirus B4 [3]; in [4]) was inactive. The outcome with Punta Toro virus, in the assay on Coxsackievirus B4 [5], with Sindbis virus, in the assay on Reovirus sp., in the assay on Human respirovirus 3 and in the assay with Human alphaherpesvirus 2 was inactive. Further, in the assay on Human alphaherpesvirus 1, the result was inactive.
Turning to `NC/C=C\Cn1cnc2c(N)nc(N)nc21` [listing 1 of 3 here], the figures for the IC50 in the assay on SW-620 (sw-620) and in the assay with L1210 (l1210) were 98.8 µM and 350 µM, respectively.
For `NC/C=C\Cn1cnc2c(N)ncnc21`, the IC50 in the assay on WI-38 is 69.1 µM; in the assay on SW-620 (Homo sapiens, SW-620), 77.1 µM; in the assay with MIA PaCa-2 it was above 100 µM; in the assay with MCF7, above 100 µM; in the assay with HepG2 it was above 100 µM; in the assay on HeLa, above 100 µM. Also, the IC50 in the assay with CCRF-CEM was found to be 340 µM; in the assay with MOLT-4 it was 248 µM; with L1210 (Mus musculus, L1210, 48 h), 276 µM. The outcome (with Influenza A virus H3N2; in the assay on Influenza B virus; with Influenza A virus; in assay [2]; in the assay on Coxsackievirus B4 [3]; in assay [4]) was inactive. Besides, the result with Punta Toro virus, with Coxsackievirus B4 [5], in the assay with Sindbis virus, with Reovirus sp., in the assay on Human respirovirus 3 and in the assay with Human alphaherpesvirus 2 was inactive. In the assay on Human alphaherpesvirus 1, the outcome was inactive.
Turning to `NC/C=C\Cn1cnc2c(=O)[nH]c(N)nc21`, the EC50 in assay [1] and in assay [6] was 10 µM throughout. Besides, the result (in the assay with Influenza A virus H3N2; in the assay with Influenza B virus; in the assay with Influenza A virus; in assay [2]; in the assay on Coxsackievirus B4 [3]; in assay [4]) was inactive. Further, the result in the assay on Punta Toro virus, in the assay with Coxsackievirus B4 [5], in the assay on Sindbis virus, in the assay on Reovirus sp., in the assay on Human respirovirus 3 and with Human alphaherpesvirus 2 was inactive. In addition, the result with Human alphaherpesvirus 1 was inactive.
Turning to `NC/C=C\Cn1ccc(=O)[nH]c1=O`, the outcome (with Influenza A virus H3N2; with Influenza B virus; with Influenza A virus; in [2]; in the assay on Coxsackievirus B4 [3]; in assay [4]) was inactive. Further, the result in the assay with Punta Toro virus, in the assay on Coxsackievirus B4 [5], in the assay with Sindbis virus, with Reovirus sp., in the assay on Human respirovirus 3 and in the assay with Human alphaherpesvirus 2 was inactive. The outcome in the assay with Human alphaherpesvirus 1 was inactive.
Take `NC/C=C\Cn1cnc2c(N)nc(N)nc21` [listing 2 of 3 here]: the half-inhibitory concentration (IC50) in the assay with WI-38 is above 100 µM; in the assay on SW-620 (Homo sapiens, SW-620), above 100 µM; with MIA PaCa-2 it was above 100 µM; in the assay with MCF7, above 100 µM; in the assay with HepG2, above 100 µM; in the assay on HeLa, above 100 µM. The IC50 in the assay with CCRF-CEM is above 500 µM; with MOLT-4, above 500 µM; in the assay on L1210 (Mus musculus, L1210, 48 h), above 500 µM.
As to `NC/C=C\Cn1cnc2c(N)nc(N)nc21` [listing 3 of 3 here], the outcome (in the assay on Influenza A virus H3N2; in the assay on Influenza B virus; in the assay on Influenza A virus; in assay [2]; in the assay with Coxsackievirus B4 [3]; in assay [4]) was inactive. Further, the result in the assay on Punta Toro virus, with Coxsackievirus B4 [5], in the assay on Sindbis virus, with Reovirus sp., in the assay with Human respirovirus 3 and in the assay on Human alphaherpesvirus 2 was inactive. Further, the result in the assay with Human alphaherpesvirus 1 was inactive.
In the case of `NC/C=C\Cn1cnc2c(=O)[nH]cnc21`, the EC50 in [1] and in assay [6] was at least 100 µM throughout. Besides, the IC50 is above 100 µM in the assay on WI-38; above 100 µM in the assay with SW-620 (Homo sapiens, SW-620); above 100 µM with MIA PaCa-2; above 100 µM with MCF7; above 100 µM in the assay on HepG2; 69.1 µM with HeLa. Besides, the IC50 in the assay with CCRF-CEM was above 500 µM; in the assay on MOLT-4 it was above 500 µM; with L1210 (Mus musculus, L1210, 48 h), 114 µM. In addition, the result (in the assay with Influenza A virus H3N2; with Influenza B virus; in the assay on Influenza A virus; in assay [2]; in the assay on Coxsackievirus B4 [3]; in assay [4]) was inactive. Moreover, the result in the assay with Punta Toro virus, in the assay with Coxsackievirus B4 [5], in the assay with Sindbis virus, in the assay with Reovirus sp., in the assay on Human respirovirus 3 and with Human alphaherpesvirus 2 was inactive. The result in the assay with Human alphaherpesvirus 1 was inactive.
Regarding `NCCCCn1cnc2c(N)nc(N)nc21`, the outcome (in the assay with Influenza A virus H3N2; in the assay on Influenza B virus; with Influenza A virus; in assay [2]; in the assay with Coxsackievirus B4 [3]; in assay [4]) was inactive. Besides, the outcome in the assay with Punta Toro virus, in the assay on Coxsackievirus B4 [5], in the assay with Sindbis virus, in the assay with Reovirus sp., in the assay with Human respirovirus 3 and in the assay with Human alphaherpesvirus 2 was inactive. Besides, the outcome with Human alphaherpesvirus 1 was inactive.

The values are drawn from ChEMBL document CHEMBL3046040, “Synthesis, cytostatic and anti-viral activity evaluation of the novel acyclic nucleoside analogues containing a sterically constrained (Z)-4-amino-2-butenyl moiety” (Med Chem Res, 2011).
